PubChem BioAssay (NCI)
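Following 48 hours of exposure in 96-well plates, responses at five concentrations were used to interpolate endpoints linearly. Definition used: TGI = concentration required for complete inhibition of growth.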 Where a SMILES comes first, the peptide text is derived from it. Bridges are numbered along the chain shown (N, C = ends). [ ]: non-standard residue; d: D form. The star is where a group is joined. ξ: configuration not given here. X26 = O=C(/C=C/C=C/C=C/C=C/C=C/C(=O)*)NC1=C(O)CCC1=O; Pro(4R-Me) = C[C@H]1CN[C@H](C(=O)O)C1; NMeA = CN[C@@H](C)C(=O)O; ξF = NC(Cc1ccccc1)C(=O)O; ξA = CC(N)C(=O)O

Legend:
Assay in all cases: NCI anticancer screen, dose series, 48 h
NCI-H23 lung = tested on: NCI-H23 lung
HT29 colon = tested on: HT29 colon
UO-31 renal = tested on: UO-31 renal
HS 578T breast = tested on: HS 578T breast
786-0 renal = tested on: 786-0 renal
MDA-MB-435 = tested on: MDA-MB-435
HCT-15 colon = tested on: HCT-15 colon
A549 NSCLC = tested on: A549 NSCLC
EKVX NSCLC = tested on: EKVX NSCLC
MOLT-4 leukemia = tested on: MOLT-4 leukemia
PC-3 prostate = tested on: PC-3 prostate
T-47D breast = tested on: T-47D breast
MCF7 breast = tested on: MCF7 breast
SW-620 colon = tested on: SW-620 colon
A498 renal = tested on: A498 renal
MALME-3M melanoma = tested on: MALME-3M melanoma
SK-MEL-5 melanoma = tested on: SK-MEL-5 melanoma
UACC-62 melanoma = tested on: UACC-62 melanoma
OVCAR-8 ovarian = tested on: OVCAR-8 ovarian
RPMI-8226 leukemia = tested on: RPMI-8226 leukemia
DU-145 prostate = tested on: DU-145 prostate
BT-549 breast = tested on: BT-549 breast
SN12C renal = tested on: SN12C renal
CAKI-1 renal = tested on: CAKI-1 renal
NCI-H226 lung = tested on: NCI-H226 lung
NCI-H522 lung = tested on: NCI-H522 lung
LOX IMVI melanoma = tested on: LOX IMVI melanoma
OVCAR-5 ovarian = tested on: OVCAR-5 ovarian
SF-539 CNS = tested on: SF-539 CNS
MDA-N = tested on: MDA-N
HCT-116 colon = tested on: HCT-116 colon
SK-MEL-28 melanoma = tested on: SK-MEL-28 melanoma
M14 melanoma = tested on: M14 melanoma
RXF 393 renal = tested on: RXF 393 renal
KM12 colon = tested on: KM12 colon
MDA-MB-231 breast = tested on: MDA-MB-231 breast
SK-MEL-2 melanoma = tested on: SK-MEL-2 melanoma
ACHN renal = tested on: ACHN renal
COLO 205 colon = tested on: COLO 205 colon
HL-60(TB) leukemia = tested on: HL-60(TB) leukemia
UACC-257 melanoma = tested on: UACC-257 melanoma
SR leukemia = tested on: SR leukemia
OVCAR-3 ovarian = tested on: OVCAR-3 ovarian
HOP-62 NSCLC = tested on: HOP-62 NSCLC
U251 CNS = tested on: U251 CNS
K-562 leukemia = tested on: K-562 leukemia
SF-268 CNS = tested on: SF-268 CNS
SF-295 CNS = tested on: SF-295 CNS
TK-10 renal = tested on: TK-10 renal
SNB-19 CNS = tested on: SNB-19 CNS
SK-OV-3 ovarian = tested on: SK-OV-3 ovarian
CCRF-CEM leukemia = tested on: CCRF-CEM leukemia
SNB-75 CNS = tested on: SNB-75 CNS
IGROV1 ovarian = tested on: IGROV1 ovarian
NCI-H460 lung = tested on: NCI-H460 lung
HCC-2998 colon = tested on: HCC-2998 colon
NCI/ADR-RES ovarian = tested on: NCI/ADR-RES ovarian
HOP-92 NSCLC = tested on: HOP-92 NSCLC
OVCAR-4 ovarian = tested on: OVCAR-4 ovarian

`CN(C)CCn1c(=O)c2ccc(NCCCN(C)CCCNc3ccc4c(=O)n(CCN(C)C)c(=O)n5c6ccccc6c(=O)c3c45)c3c(=O)c4ccccc4n(c1=O)c23` showed a TGI (NCI-H23 lung) of 0.546 µM, a TGI (HT29 colon) of 1.06 µM and a TGI (UO-31 renal) of 0.53 µM. For the same compound, the TGI (HS 578T breast) was 1.76 µM, the TGI (786-0 renal) was 1.08 µM and the TGI (MDA-MB-435) was 0.127 µM. For the same compound, the TGI (HCT-15 colon) was 0.421 µM, the TGI (A549 NSCLC) was 0.472 µM and the TGI (EKVX NSCLC) was 1.1 µM. It also gave a TGI (MOLT-4 leukemia) of 0.0853 µM, a TGI (PC-3 prostate) of 0.654 µM and a TGI (T-47D breast) of 8.33 µM. For the same compound, the TGI (MCF7 breast) was 0.904 µM, the TGI (SW-620 colon) was 0.231 µM and the TGI (A498 renal) was 2.13 µM. For the same compound, the TGI (MALME-3M melanoma) was 2.33 µM, the TGI (SK-MEL-5 melanoma) was 1.17 µM and the TGI (UACC-62 melanoma) was 1.58 µM. It also gave a TGI (OVCAR-8 ovarian) of 0.49 µM, a TGI (RPMI-8226 leukemia) of 0.231 µM and a TGI (DU-145 prostate) of 0.533 µM. It also gave a TGI (BT-549 breast) of 1.75 µM, a TGI (SN12C renal) of 1.18 µM and a TGI (CAKI-1 renal) of 0.426 µM. The TGI (NCI-H226 lung) was 0.535 µM, the TGI (NCI-H522 lung) was 0.517 µM and the TGI (LOX IMVI melanoma) was 0.164 µM. It also gave a TGI (OVCAR-5 ovarian) of 3.56 µM, a TGI (SF-539 CNS) of 1.78 µM and a TGI (MDA-N) of 1.6 µM. For the same compound, the TGI (HCT-116 colon) was 1.03 µM, the TGI (SK-MEL-28 melanoma) was 1.94 µM and the TGI (M14 melanoma) was 1.9 µM. The TGI (RXF 393 renal) was 0.362 µM, the TGI (KM12 colon) was 0.59 µM and the TGI (MDA-MB-231 breast) was 0.54 µM. For the same compound, the TGI (SK-MEL-2 melanoma) was 2.44 µM, the TGI (ACHN renal) was 0.949 µM and the TGI (COLO 205 colon) was 0.376 µM. For the same compound, the TGI (HL-60(TB) leukemia) was 1.06 µM, the TGI (UACC-257 melanoma) was 1.82 µM and the TGI (SR leukemia) was 0.504 µM. It also gave a TGI (OVCAR-3 ovarian) of 1.21 µM, a TGI (HOP-62 NSCLC) of 0.838 µM and a TGI (U251 CNS) of 1.06 µM. It also gave a TGI (K-562 leukemia) of 1.3 µM, a TGI (SF-268 CNS) of 2.11 µM and a TGI (SF-295 CNS) of 1.54 µM. For the same compound, the TGI (TK-10 renal) was 1.48 µM, the TGI (SNB-19 CNS) was 1.33 µM and the TGI (SK-OV-3 ovarian) was 2.43 µM. The TGI (CCRF-CEM leukemia) was 0.0819 µM, the TGI (SNB-75 CNS) was 0.334 µM and the TGI (IGROV1 ovarian) was 0.194 µM. For the same compound, the TGI (NCI-H460 lung) was 0.139 µM, the TGI (HCC-2998 colon) was 0.224 µM and the TGI (NCI/ADR-RES ovarian) was 1.48 µM. For the same compound, the TGI (HOP-92 NSCLC) was 0.735 µM.

`CC1NC(=O)[C@H](C)N(C)C(=O)[C@@H]2CCCN2C(=O)[C@@H](NC(=O)C(Cc2ccccc2)NC(=O)/C=C/C=C/C=C/C=C/C=C/C(=O)NC2=C(O)CCC2=O)COC(=O)[C@@H]2C[C@@H](C)CN2C1=O` (stereo partly drawn) (X26-[ξF]SP[NMeA][ξA][Pro(4R-Me)]; ester 2-C) was tested, and the TGI (NCI-H23 lung) was over 100 µM, the TGI (HT29 colon) was over 100 µM and the TGI (UO-31 renal) was over 100 µM. It also gave a TGI (HS 578T breast) of over 100 µM, a TGI (786-0 renal) of over 100 µM and a TGI (MDA-MB-435) of over 100 µM. The TGI (HCT-15 colon) was over 100 µM, the TGI (A549 NSCLC) was over 100 µM and the TGI (EKVX NSCLC) was over 100 µM. The TGI (PC-3 prostate) was over 100 µM, the TGI (T-47D breast) was over 100 µM and the TGI (MCF7 breast) was over 100 µM. The TGI (SW-620 colon) was over 100 µM, the TGI (A498 renal) was over 100 µM and the TGI (MALME-3M melanoma) was over 100 µM. It also gave a TGI (SK-MEL-5 melanoma) of over 100 µM, a TGI (UACC-62 melanoma) of over 100 µM and a TGI (RPMI-8226 leukemia) of over 100 µM. It also gave a TGI (DU-145 prostate) of over 100 µM, a TGI (BT-549 breast) of over 100 µM and a TGI (SN12C renal) of over 100 µM. The TGI (CAKI-1 renal) was over 100 µM, the TGI (OVCAR-4 ovarian) was over 100 µM and the TGI (NCI-H522 lung) was over 100 µM. The TGI (LOX IMVI melanoma) was over 100 µM, the TGI (OVCAR-5 ovarian) was over 100 µM and the TGI (SF-539 CNS) was over 100 µM. The TGI (MDA-N) was over 100 µM, the TGI (HCT-116 colon) was over 100 µM and the TGI (SK-MEL-28 melanoma) was over 100 µM. The TGI (M14 melanoma) was over 100 µM, the TGI (RXF 393 renal) was over 100 µM and the TGI (KM12 colon) was over 100 µM. For the same compound, the TGI (MDA-MB-231 breast) was over 100 µM, the TGI (SK-MEL-2 melanoma) was over 100 µM and the TGI (ACHN renal) was over 100 µM. For the same compound, the TGI (COLO 205 colon) was over 100 µM, the TGI (HL-60(TB) leukemia) was over 100 µM and the TGI (UACC-257 melanoma) was over 100 µM. The TGI (SR leukemia) was over 100 µM, the TGI (OVCAR-3 ovarian) was over 100 µM and the TGI (HOP-62 NSCLC) was over 100 µM. The TGI (U251 CNS) was over 100 µM, the TGI (K-562 leukemia) was over 100 µM and the TGI (SF-268 CNS) was over 100 µM. For the same compound, the TGI (SF-295 CNS) was over 100 µM, the TGI (TK-10 renal) was over 100 µM and the TGI (SNB-19 CNS) was over 100 µM. The TGI (SK-OV-3 ovarian) was over 100 µM, the TGI (CCRF-CEM leukemia) was over 100 µM and the TGI (SNB-75 CNS) was over 100 µM. For the same compound, the TGI (IGROV1 ovarian) was over 100 µM, the TGI (NCI-H460 lung) was over 100 µM and the TGI (HCC-2998 colon) was over 100 µM. For the same compound, the TGI (NCI/ADR-RES ovarian) was over 100 µM and the TGI (HOP-92 NSCLC) was over 100 µM.
